Experiments:
Format in all cases: cell-based
Kasumi-7 cells = assay: Human acute lymphoblastic leukemia cell line Kasumi-7 proliferation suppression test; details: 72 h, compound 10 μM, 3 days, WST-8, read-out: cell survival rate (% of control) Kasumi-7
Excerpt: Example 55: Human Acute Lymphoblastic Leukemia Cell Line Kasumi-7 Proliferation Suppression Test
Kasumi-7 cells (NIBIOHN, JCRB1401) were suspended in 20% fetal calf serum (Thermo Fisher Scientific, Inc.)-containing RPMI1640 medium (ATCC, hereinafter abbreviated as medium C), and diluted as appropriate with 0.4% trypan blue solution (Sigma-Aldrich Co. LLC.). The number of viable cells was counted with a hemocytometer (Funakoshi Co., Ltd.). A cell suspension obtained by diluting with medium C such that the value obtained was 1.3×10^5 cells/mL was dispensed into a Falcon 96 well flat bottom plate (Corning Incorporated) at 75 μL/well, and culture was started at 37° C. under 5% CO2 stream. The next day, a solution obtained by diluting 4 mM DMSO solution of the test compound 100-fold with medium C was added by 25 μL to each well (final concentration of test compound 10 μM). 25 μL of a solution obtained by diluting DMSO 100-fold with medium C was added to the control well. After culturing at 37° C. in a 5% CO2 stream for 3 days, the cell proliferation activity was measured according to the instruction manual attached to WST-8 Kit (KISHIDA CHEMICAL Co., Ltd.).

Daudi cells = assay: Human Burkitt lymphoma cell line Daudi proliferation suppression test; details: 72 h, compound 10 μM, 3 days, WST-8, read-out: cell survival rate (% of control) Daudi
Excerpt: Example 54: Human Burkitt Lymphoma Cell Line Daudi Proliferation Suppression Test
Daudi cells (National Institutes of Biomedical Innovation, Health and Nutrition (NIBIOHN), JCRB9071) were suspended in medium B, and diluted as appropriate with 0.4% trypan blue solution (Sigma-Aldrich Co. LLC.). The number of viable cells was counted with a hemocytometer (ERMA INC.). A cell suspension obtained by diluting with medium B such that the value obtained was 1.3×10^5 cells/mL was dispensed into a Falcon 96 well flat bottom plate (Corning Incorporated) at 75 μL/well, and culture was started at 37° C. under 5% CO2 stream. The next day, a solution obtained by diluting 4 mM DMSO solution of the test compound 100-fold with medium B was added by 25 μL to each well (final concentration of test compound 10 μM). 25 μL of a solution obtained by diluting DMSO 100-fold with medium B was added to the control well. After culturing at 37° C. in a 5% CO2 stream for 3 days, the cell proliferation activity was measured according to the instruction manual attached to WST-8 Kit (KISHIDA CHEMICAL Co., Ltd.).

TNF-α production = assay: Human TNF-α production suppression test (LPS-stimulated peripheral blood mononuclear cells, ELISA); details: PBMC, 24 hr; for inhibition at 10 µg/mL: compound 10 μg/mL, control well = 100, read-out: TNF-α production suppressive rate (%)
Description: Example 50: Human TNF-α Production Suppression Test
Peripheral blood of a healthy adult was collected in a vacuum blood collection tube (Terumo, containing EDTA/2Na), and then diluted two-fold with an equal volume of OTSUKA NORMAL SALINE (Otsuka Pharmaceutical Co., Ltd.). The diluted blood was mixed with Lymphoprep (AXIS-SHIELD) in half the volume of the diluted blood, dispensed into a 15 mL conical tube, and centrifuged at room temperature for 20 min (2,100 rpm). The mononuclear cells accumulated at the interface between Lymphoprep and plasma was transferred to a 50 mL conical tube, diluted with OTSUKA NORMAL SALINE, and the mononuclear cells suspension was centrifuged at room temperature for 10 min (1,150 rpm) and then the supernatant was removed. The mononuclear cells fraction obtained as a precipitate was suspended in an appropriate amount of 10% fetal calf serum (Thermo Fisher Scientific)-containing RPMI1640 medium (Thermo Fisher Scientific, hereinafter abbreviated as medium A), and diluted as appropriate with 0.4% trypan blue solution (Sigma-Aldrich Co. LLC.). The number of viable cells was counted with a hemocytometer (ERMA INC.). It was diluted with medium A such that the value obtained was 5×10^5 cells/mL. On the other hand, 75 μL of medium A, 5 μL of 0.4 mg/mL test compound solution (DMSO solution 10-fold diluted with medium A), and 20 μL of 10 μg/mL lipopolysaccharide (Sigma-Aldrich Co. LLC.) solution (diluted with medium A) were each added in advance to the same well of a Falcon 96-well flat bottom plate (Corning Incorporated), and the above-mentioned cell suspension was dispensed at 0.1 mL/well. 5 μL of DMSO diluted 10-fold with medium A was added to the control well instead of the compound solution. After culturing at 37° C. in a 5% CO2 stream for 24 hr, the culture solution was centrifuged at 4° C., 1,000 rpm for 3 min and the supernatant was recovered. The content of TNF-α in the supernatant was measured using an ELISA kit (Peprotech) according to a conventional method. The amount of TNF-α produced in the well containing the test compound was determined with the amount of TNF-α produced in the control well as 100, and the suppression rate was calculated for each test.

| SMILES | viability at 10 µM (Kasumi-7 cells) [%] | viability at 10 µM (Daudi cells) [%] | inhibition at 10 µg/mL (TNF-α production) [%] | inhibition at 3 µg/mL (TNF-α production; suppressive rate at 3 μg/mL) [%] |
| --- | --- | --- | --- | --- |
| COc1c(-c2cn(C3CCC(=O)NC3=O)nn2)csc1C (stereo not drawn) [compound 15, 3-[4-(4-methoxy-5-methylthiophen-3-yl)-1H-1,2,3-triazol-1-yl]piperidine-2,6-dione] | 60 | 61 | 85 | – |
| COC(=O)c1scc(-c2cn(C3CCC(=O)NC3=O)nn2)c1OC (stereo not drawn) [compound 16, methyl 4-[1-(2,6-dioxopiperidin-3-yl)-1H-1,2,3-triazol-4-yl]-3-methoxythiophene-2-carboxylate] | 90 | 83 | 100 | – |
| CCOc1cscc1-c1cn(C2CCC(=O)NC2=O)nn1 (stereo not drawn) [compound 17, 3-[4-(4-ethoxythiophen-3-yl)-1H-1,2,3-triazol-1-yl]piperidine-2,6-dione] | 48 | 50 | 92 | – |
| COc1sccc1-c1cn(C2CCC(=O)NC2=O)nn1 (stereo not drawn) [compound 18, 3-[4-(2-methoxythiophen-3-yl)-1H-1,2,3-triazol-1-yl]piperidine-2,6-dione] | 52 | 51 | 100 | – |
| COc1cscc1-c1cn(C2CCC(=O)NC2=O)nn1 (stereo not drawn) [compound 19, 3-[4-(4-methoxythiophen-3-yl)-1H-1,2,3-triazol-1-yl]piperidine-2,6-dione] | 24 | 4 | 83 | – |
| COc1cc(-c2cn(C3CCC(=O)NC3=O)nn2)cs1 (stereo not drawn) [compound 20, 3-[4-(5-methoxythiophen-3-yl)-1H-1,2,3-triazol-1-yl]piperidine-2,6-dione] | 53 | 55 | 87 | – |
| CCCOc1cscc1-c1cn(C2CCC(=O)NC2=O)nn1 (stereo not drawn) [compound 21, 3-[4-(4-propoxythiophen-3-yl)-1H-1,2,3-triazol-1-yl]piperidine-2,6-dione] | 79 | 86 | 30 | – |
| COc1c(-c2cn(C3CCC(=O)NC3=O)nn2)csc1Cl (stereo not drawn) [compound 22, 3-[4-(5-chloro-4-methoxythiophen-3-yl)-1H-1,2,3-triazol-1-yl]piperidine-2,6-dione] | 82 | 81 | 48 | – |
| COc1c(-c2cn(C3CCC(=O)NC3=O)nn2)csc1Br (stereo not drawn) [compound 23, 3-[4-(5-bromo-4-methoxythiophen-3-yl)-1H-1,2,3-triazol-1-yl]piperidine-2,6-dione] | 76 | 76 | 62 | – |
| CCOc1cc(-c2cn(C3CCC(=O)NC3=O)nn2)cs1 (stereo not drawn) [compound 24, 3-[4-(5-ethoxythiophen-3-yl)-1H-1,2,3-triazol-1-yl]piperidine-2,6-dione] | 72 | 69 | 75 | – |
| CCCCOc1cscc1-c1cn(C2CCC(=O)NC2=O)nn1 (stereo not drawn) [compound 25, 3-[4-(4-butoxythiophen-3-yl)-1H-1,2,3-triazol-1-yl]piperidine-2,6-dione] | 73 | 68 | 49 | – |
| CC(C)Oc1cscc1-c1cn(C2CCC(=O)NC2=O)nn1 (stereo not drawn) [compound 26, 3-[4-(4-isopropoxythiophen-3-yl)-1H-1,2,3-triazol-1-yl]piperidine-2,6-dione] | 50 | 51 | 83 | – |
| O=C1CCC(n2cc(-c3cscc3OC3CCCC3)nn2)C(=O)N1 (stereo not drawn) [compound 27, 3-{4-[4-(cyclopentyloxy)thiophen-3-yl]-1H-1,2,3-triazol-1-yl}piperidine-2,6-dione] | 83 | 70 | 39 | – |
| O=C1CCC(n2cc(-c3cscc3OCC3CC3)nn2)C(=O)N1 (stereo not drawn) [compound 28, 3-{4-[4-(cyclopropylmethoxy)thiophen-3-yl]-1H-1,2,3-triazol-1-yl}piperidine-2,6-dione] | 75 | 78 | 37 | – |
| O=C1CCC(n2cc(-c3cscc3OCC3CCCC3)nn2)C(=O)N1 (stereo not drawn) [compound 29, 3-{4-[4-(cyclopentylmethoxy)thiophen-3-yl]-1H-1,2,3-triazol-1-yl}piperidine-2,6-dione] | 84 | 79 | 57 | – |
| O=C1CCC(n2cc(-c3cscc3OCC3CCCCC3)nn2)C(=O)N1 (stereo not drawn) [compound 30, 3-{4-[4-(cyclohexylmethoxy)thiophen-3-yl]-1H-1,2,3-triazol-1-yl}piperidine-2,6-dione] | 62 | 76 | 79 | – |
| COc1ccc(COc2cscc2-c2cn(C3CCC(=O)NC3=O)nn2)cc1 (stereo not drawn) [compound 31, 3-{4-[4-(4-methoxybenzyloxy)thiophen-3-yl]-1H-1,2,3-triazol-1-yl}piperidine-2,6-dione] | 43 | 39 | – | 82 |
| O=C1CCC(n2cc(-c3cscc3OCc3ccccc3)nn2)C(=O)N1 (stereo not drawn) [compound 32, 3-{4-[4-(benzyloxy)thiophen-3-yl]-1H-1,2,3-triazol-1-yl}piperidine-2,6-dione] | 36 | 23 | 100 | – |
| O=C1CCC(n2cc(-c3cscc3OCc3ccncc3)nn2)C(=O)N1 (stereo not drawn) [compound 33, 3-{4-[4-(pyridin-4-ylmethoxy)thiophen-3-yl]-1H-1,2,3-triazol-1-yl}piperidine-2,6-dione] | 38 | 27 | 100 | – |
| O=C1CCC(n2cc(-c3cscc3OCc3ccccn3)nn2)C(=O)N1 (stereo not drawn) [compound 34, 3-{4-[4-(pyridin-2-ylmethoxy)thiophen-3-yl]-1H-1,2,3-triazol-1-yl}piperidine-2,6-dione] | 45 | 48 | 97 | – |
| O=C1CCC(n2cc(-c3cscc3OCc3cccnc3)nn2)C(=O)N1 (stereo not drawn) [compound 35, 3-{4-[4-(pyridin-3-ylmethoxy)thiophen-3-yl]-1H-1,2,3-triazol-1-yl}piperidine-2,6-dione] | 53 | 67 | 70 | – |
| O=C1CCC(n2cc(-c3cscc3OCc3ccc(CN4CCOCC4)cc3)nn2)C(=O)N1 (stereo not drawn) [compound 36, 3-(4-{4-[4-(morpholinomethyl)benzyloxy]thiophen-3-yl}-1H-1,2,3-triazol-1-yl)piperidine-2,6-dione] | 19 | 6 | 98 | – |
| COCc1ccc(COc2cscc2-c2cn(C3CCC(=O)NC3=O)nn2)cc1 (stereo not drawn) [compound 37, 3-(4-{4-[4-(methoxymethyl)benzyloxy]thiophen-3-yl}-1H-1,2,3-triazol-1-yl)piperidine-2,6-dione] | 38 | 20 | 81 | – |

— patent US11299485B2, “Thiophene derivative and use thereof” (FUJIMOTO CO., LTD., priority 2018, dated 2022)
